Results reported in US9186322B2, “Platinum aggregates and process for producing the same” (Insmed Incorporated, priority 2002, dated 2015).

Test: TEM analysis of particles
Format: physicochemical
Settings: not complexed with a lipid
Description: The white to portion containing mostly light fraction was removed and the yellowish brown fraction on the bottom was used for TEM analysis. A small amount of sample (less than 10 microliters) was placed on the carbon coated grid. The grid was placed on the top of a piece of filter paper and spun an Eppendorf centrifuge for 1 minute at 500 RPM to remove excess water. Samples were air-dried for at least one hour before analysis. If centrifugation was done at too low a speed, water was not removed sufficiently enough, and the sample remained too thick, even after drying, tending to boil when exposed to high vacuum inside the TEM microscope. Centrifugation conditions were adjusted to be gentle enough to avoid damage to the grid or loss of the sample.
The cisplatin solution was briefly sonicated in a bath of room temperature water. At the first signs of cisplatin precipitation and cloudiness, a small volume was taken with a pipette and immediately placed on a carbon coated grid as described in the preceding paragraph.
TEM images were obtained on a Zeiss 910 Transmission Electron Microscope at the Princeton Imaging and Analysis Center, Princeton University, Princeton, N.J. An accelerating high voltage of 100 kV was used, and pictures were captured on a charged couple device (CCD) camera at magnifications of 2000 to 25,000×. […]

N.N.[Cl][Pt][Cl] [cisplatin, cis-diamine-dichloroplatinum (II)]
crystal length: 10-20 microns
crystal width: approximately 2 microns
